The subject of one test is wild-type E. coli. Nature of the test: Light microscopy of wild-type E. coli (lysis). In kind it is cell-based. To be noted: VanQAmC10 25 μM, vancomycin 34 μM (Fig. 5A). As for the experimental part:
Over 240 minutes, E. coli treated with VanQAmC10 (at 25 μM), gradually grow bulky before finally lysing (ESI Video ^†). It punctured the cell, causing the cytoplasm to leak out as extrusions on the surface of the bacteria after which the cells flattened and disintegrated.
Fig. 5 Examination of E. coli cells treated with vancomycin, cephalexin and VanQAmC10 to study the effect on bacterial membrane integrity and cell division. (A) Light microscopy of wild-type E. coli upon treatment with vancomycin (34 μM), and VanQAmC10 (25 μM); (B) light and fluorescence microscopy in GFP-FtsZ expressing E. coli to assess morphological changes and localization of FtsZ post-treatment with VanQAmC10 (15 μM) for 40 min; (C) delocalization of GFP-FtsI in GFP-FtsI expressing E. coli through fluorescence microscopy and morphological changes through light microscopy upon treatment with vancomycin (34 μM), cephalexin (22 μM) and VanQAmC10 (10 μM); (D) light microscopy to assess morphological changes in E. coli MG1655 ΔamiAC mutant, when untreated and treated with vancomycin (3 μM) and VanQAmC10 (2 μM). Black arrows indicate morphological aberrations.

The next test relates to ΔamiAC MG1655 E. coli. As to the kind of experiment: Microscopy of ΔamiAC MG1655 E. coli. To be noted: sub-inhibitory concentrations: vancomycin 3 μM, VanQAmC10 2 μM (Fig. 5D). In kind it is cell-based. As for the experimental part: The bacterial amidases help cleave the septum in the final stage of cell division to produce daughter cells.[39] In the absence of amidases, chains of unseparated cells are formed (Fig. 5D). These retain distinct cytoplasmic compartments but share an outer membrane.[39] These cells are known to be hypersensitive to antibiotics and detergents. However, ΔamiAC mutations are resistant to killing by cephalexin.[38] The MIC of VanQAmC10 against the ΔamiAC mutant was reduced to 4 μM, while that of vancomycin was >10 μM. […] This is indicative of impaired cell division. Cell debris due to lysis after compound treatment are also visible. […]
(§1) from 10 μg/mL. The bacteria with compounds and untreated control were incubated for 18 h at 37 ̊C under shaking and OD600 was measured.
(§2) Microscopy of ΔamiAC MG1655 E. coli
ΔamiAC MG1655 was cultured overnight in LB media at 37 ̊C. […]
(§3) MRSA ATCC 33591 was grown to mid-log phase at 37 °C. […] The viable bacteria were then counted after 48 h incubation at 37 °C. […]
(§4) Antagonization of antibacterial activity of AAV-qC10 was determined by addition of 500 μM N,N՛-diacetyl–L-Lys–D-Ala–D-Ala or 100 μg/mL of lipoteichoic acid to serial dilutions of the test compound. The MIC was then determined against MRSA by measuring the OD600 18-24 […]
(§5) Vancomycin was chosen as control antibiotic for MRSA. The initial MIC values of VanQAmC10, vancomycin were determined against the respective bacteria. […]

The next test has as its system MRSA. As to the kind of experiment: Resistance study, serial passaging at sub-MIC. Particulars: after 20 passages at sub-MIC. It is filed as cell-based, S. aureus. As for the experimental part: Having observed the multiple mechanisms of VanQAmC10, the potential as a preclinical candidate was examined. […] The frequency of resistance for both vancomycin and VanQAmC10 against MRSA was <10^−8 indicating the absence of spontaneous mutants. […]
as §1, §2
ΔamiAC MG1655 was cultured overnight in LB media at 37 ̊C. Cells were then inoculated in LB media at 1:100 dilution ratio and made to grow till O.D600 0.1. The cells were then treated with 4 μg/mL concentration of vancomycin and VanQAmC10 or left untreated for 2 h. […]
as §3, §4, §5
The doses for administration, were given modified OECD guidelines. LD50 was determined using Spearman-Karber method. […]

Results on two molecules are retold here after article PMC9977398, “Next-generation membrane-active glycopeptide antibiotics that also inhibit bacterial cell division” (Chemical Science, 2023).

Consider `CN[C@H](CC(C)C)C(=O)N[C@H]1C(=O)N[C@@H](CC(N)=O)C(=O)N[C@H]2C(=O)N[C@H]3C(=O)N[C@H](C(=O)N[C@H](C(=O)O)c4cc(O)cc(O)c4-c4cc3ccc4O)[C@H](O)c3ccc(c(Cl)c3)Oc3cc2cc(c3O[C@@H]2O[C@H](CO)[C@@H](O)[C@H](O)[C@H]2O[C@H]2C[C@](C)(N)[C@H](O)[C@H](C)O2)Oc2ccc(cc2Cl)[C@H]1O` [Vancomycin, reference compound], for which, in the test with wild-type E. coli, the “effect on E. coli cells (microscopy)” value is “did not affect the cells”. Besides, the “morphology of ΔamiAC mutant” value with ΔamiAC MG1655 E. coli was “few cells appear larger and bulky while most appear similar to the untreated bacteria”. Further, the “increase in MIC (resistance development)” value with MRSA worked out at 2 fold.
`CCCCCCCCCCNC(=O)C[N+](C)(C)CCCNC(=O)C1NC(=O)C2NC(=O)C(NC(=O)C3NC(=O)C(CC(N)=O)NC(=O)C(NC(=O)C(CC(C)C)NC)C(O)c4ccc(c(Cl)c4)Oc4cc3cc(c4OC3OC(CO)C(O)C(O)C3OC3CC(C)(N)C(O)C(C)O3)Oc3ccc(cc3Cl)C2O)c2ccc(O)c(c2)-c2c(O)cc(O)cc21` (stereo not drawn) [VanQAmC10 (8)]: the “effect on E. coli cells (microscopy)” value with wild-type E. coli is “completely lysed the cells”. For the same molecule, the “morphology of ΔamiAC mutant” value with ΔamiAC MG1655 E. coli is “larger cell phenotypes of variable sizes”. Also, the “increase in MIC (resistance development)” value in the test on MRSA was “lack of resistance development”.
